Data from PubChem BioAssay (NCI).
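Protocol summary: plate cells (96-well), add compound at 5 concentrations, incubate 48 h, interpolate endpoints linearly. TGI marks complete inhibition of growth.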

What was measured:
Test in all cases: DTP human tumour cell line panel, 48 h
[1] = system: SK-MEL-28 melanoma
[2] = system: KM12 colon
[3] = system: K-562 leukemia
[4] = system: ACHN renal
[5] = system: SK-MEL-5 melanoma
[6] = system: IGROV1 ovarian
[7] = system: LOX IMVI melanoma
[8] = system: OVCAR-8 ovarian
[9] = system: HCT-15 colon
[10] = system: OVCAR-4 ovarian
[11] = system: OVCAR-5 ovarian
[12] = system: HOP-62 NSCLC
[13] = system: NCI-H522 lung
[14] = system: UACC-257 melanoma
[15] = system: A549 NSCLC
[16] = system: UO-31 renal
[17] = system: HS 578T breast
[18] = system: SNB-19 CNS
[19] = system: RXF 393 renal
[20] = system: NCI-H226 lung
[21] = system: NCI/ADR-RES ovarian
[22] = system: MALME-3M melanoma
[23] = system: SF-268 CNS
[24] = system: MOLT-4 leukemia
[25] = system: M14 melanoma
[26] = system: SW-620 colon
[27] = system: A498 renal
[28] = system: MDA-MB-231 breast
[29] = system: 786-0 renal
[30] = system: NCI-H23 lung
[31] = system: SK-MEL-2 melanoma
[32] = system: RPMI-8226 leukemia
[33] = system: MDA-N
[34] = system: HCC-2998 colon
[35] = system: HOP-92 NSCLC
[36] = system: MDA-MB-435
[37] = system: MCF7 breast
[38] = system: DU-145 prostate
[39] = system: SNB-75 CNS
[40] = system: U251 CNS
[41] = system: SF-295 CNS
[42] = system: COLO 205 colon
[43] = system: PC-3 prostate
[44] = system: EKVX NSCLC
[45] = system: UACC-62 melanoma
[46] = system: HT29 colon
[47] = system: CCRF-CEM leukemia
[48] = system: NCI-H460 lung
[49] = system: HCT-116 colon
[50] = system: TK-10 renal
[51] = system: BT-549 breast
[52] = system: OVCAR-3 ovarian
[53] = system: CAKI-1 renal
[54] = system: SK-OV-3 ovarian
[55] = system: T-47D breast
[56] = system: SF-539 CNS
[57] = system: SN12C renal

Measured: TGI

C[C@]12CC(c3ccccc3O1)C(C(=O)NC13CC4CC(CC(C4)C1)C3)C(=O)N2 (stereo partly specified)
35.9 µM: [25]
93.2 µM: [8]
33.3 µM: [5]
61.1 µM: [47]
55.8 µM: [35]
44.3 µM: [16]
57.9 µM: [7]
71.3 µM: [20]
43.8 µM: [33]
64 µM: [1]
40.8 µM: [29]
57.6 µM: [19]
52.7 µM: [11]
65.1 µM: [36]
43 µM: [31]
31.3 µM: [32]
71.7 µM: [15]
30.8 µM: [46]
30.4 µM: [3]
55.6 µM: [21]
19.3 µM: [44]
60.8 µM: [9]
61.8 µM: [51]
61.9 µM: [30]
74 µM: [39]
31.7 µM: [42]
41 µM: [49]
36.7 µM: [24]
96 µM: [23]
not listed: [55] | [56] | [57]
> 100 µM: all other assays above

CNC(=O)CCNC(=O)CCC(=O)OC
not listed: [6] | [7] | [9] | [13] | [14] | [17] | [20] | [22] | [32] | [34] | [35] | [39] | [44] | [47] | [51]
> 100 µM: all other assays above
